# Laboratory results published in patent US6916843B1, “Anti-inflammatory actions of cytochrome P450 expoxygenase-derived eicosanoids” (The United States of America as represented by the …, priority 1999, dated 2005).
# Columns and labels:
# [1] = tested on: VCAM-1 expression; experiment: Cell-surface enzyme immunoassay of cytokine-induced VCAM-1 expression in endothelial cells; type: cell-based, human; settings: human endothelial cells, 1-100 nM
# Method: (§1) FIG. 2 is a set of bar graphs of cell-surface enzyme immunoassays. […] The difference between treatment with TNF-α alone and in the presence of [11,12]-EET were statistically significant (*p<0.05, **p<0.01), OD, optical density. […] After stimulation with TNF-α (10 ng/ml) in the presence or absence of EET, promoter activity was determined relative to basal activity. *p<0.01 vs. TNF-α alone.
# (§2) To determine the biological effects of EETs, we treated tumor necrosis factor alpha (TNF-α)-stimulated human endothelial cells with physiological relevant concentrations (1-100 nM) of [5,6]-EET, [8,9]-EET, [11,12]-EET, [14,15]-EET, [11,12]-DHET.
# [2] = tested on: ICAM-1 expression; experiment: Cell-surface enzyme immunoassay of TNF-α-induced ICAM-1 expression in endothelial cells; type: cell-based, human; settings: 100 nM, TNF-α 10 ng/ml
# Method: as §1, §2
# [3] = tested on: E-selectin expression; experiment: Cell-surface enzyme immunoassay of TNF-α-induced E-selectin expression in endothelial cells; type: cell-based, human; settings: 100 nM, TNF-α 10 ng/ml
# Method: as §1, §2
# [4] = tested on: IκB kinase (IKK); experiment: IKK activity assay with GST-IκB-α substrate, TNF-α-stimulated endothelial cells; type: biochemical, human; settings: 100 nM, TNF-α 10 ng/ml, 15 min
# Method: A set of gel shift assays was performed. […] In some assays, [11,12]-EET (100 nM) was also added directly to the IKK assay (in vitro). As a control for nonspecific phosphorylation, the assay was performed without the addition of immunoprecipitated IKK (no enzyme) or in the presence of a IκB-α mutant (ΔSer 32, Ser 36→Thr) as substrate. The assay was performed three times with similar results.
# Specificity of IKB was determined by the complete absence of phosphorylation when the mutated IκB-α substrate, GST-1κB-α (Δ32,36: S→T) which cannot be phosphorylated at serine residues 32 and 36, was substituted for wild-type GST-IκB-α.
# [5] = tested on: VCAM-1; experiment: VCAM-1 expression in the murine carotid artery after TNF-α; type: in vivo; settings: mouse, intra-arterial infusion 100 ng/kg/min, TNF-α 10 μg/kg i.p., 5 hours
# Method: (§3) FIG. 3A is a graph showing the expression of VCAM-1 in the murine carotid artery at 5 hours after treatment with intraperitaneal injection of TNF-α (10 μg/kg) alone or in combination with continuous intra-arterial infusion of [11,12]-EET (100 ng/kg/min). FIG. 3B is a bar graph showing the effect of [11,12]-EET on TNF-α induced mononuclear cell adhesion in the murine carotid artery. The mononuclear cells (U937) were perfused through the carotid artery at a wall shear stress of 3 dyn/cm^2. Intra-arterial infusion of vehicle (saline) or [14,15]-EET (100 ng/kg/min) had no effect. […] All experiments except the [14,15]-EET infusion were performed in duplicate.
# (§4) To determine the functional relevance of EETs in vascular inflammation, we tested [11,12]-EET and its regioisomer [14,15]-EET in a recently developed in vivo model of TNF-α-induced VCAM-1 -mediated mononuclear cell adhesion in the murine carotid artery. […]
# (§5) Cell rolling and adhesion were recorded on videotape using stroboscopic epifluoresence illumination with an introvital microscope (objective Zeiss 20×, 0.5 numerical aperture). […] In separate experiments, VCAM-1 expression was measured in paraffin-sections (5 μm thick) of carotid arteries harvested from mice treated in the same way. […]
# [6] = tested on: mononuclear cell adhesion to carotid artery; experiment: TNF-α-induced mononuclear cell (U937) adhesion in the murine carotid artery; type: in vivo; settings: mouse, intra-arterial infusion 100 ng/kg/min, TNF-α 10 μg/kg i.p., 5 hours
# Method: as §3, §4, §5
# [7] = tested on: superoxide anion; experiment: Superoxide anion formation by BAECs (lucigenin chemiluminescence); type: cell-based, bovine; settings: CYP2J2-transfected vs GFP-transfected cells
# Method: The rate of superoxide anion generation by BAECs was determined as follows: Forty-eight hours after transfection with either pcDNA3.1/GFP or pcDNA3.1/CYP2J2, BAECs were detached by treatment with trypsin and resuspended in culture medium containing 10% FBS. Special care was taken to avoid unnecessary manipulation of the BAECs. The rate of superoxide anion formation in vitro was determined by chemiluminescence of lucigenin (bis-N-methylacridinium nitrate) as described by Yang et al., 274 Am. J. Physiol. H1955-H1961 (1998)). Briefly, culture medium (10% of FBS added) containing 0.25 mmol/L lucigenin (pH 7.4) was prepared as an assay solution. One milliliter of this assay solution was placed in a plastic scintillation vial., and then 2×10^6 BAECs were gently placed in the assay solution. The chemiluminescence of lucigenin was then detected with the use of a scintillation counter (LS 6500, Beckman Instruments, Fullerton, Calif.) in out-of-coincidence mode with a single active photomultiplier tube every 5 min. The chemical specificity of this light-yielding reaction for superoxide anion has been reported previously (Yang et al., 274 Am. J. Physiol. H1955-H1961 (1998)).
Molecule,inhibition of TNF-α-induced VCAM-1 expression (rank/words) ([1]; TNF-α),maximal inhibition of TNF-α-induced VCAM-1 expression ([1]; TNF-α 10 ng/ml) [%],inhibition of ICAM-1 expression [2],inhibition of E-selectin expression [3],inhibition of TNF-α-induced IKK activity [4] [%],VCAM-1 expression in carotid artery [5],mononuclear cell adhesion to the vessel wall [6],rate of superoxide anion formation [7]
"CCCCC/C=C\C[C@H]1O[C@H]1C/C=C\C/C=C\CCCC(=O)O [[11,12]-EET]",most effective,75,inhibited,inhibited,> 90,decreased,inhibited,–
"CYP2J2: CYP2J2 cDNA (1.9 kb) subcloned into plasmid pcDNA3.1, transfected into endothelial cells",–,–,–,–,–,–,–,significantly lower
